Legend:
[1] = test system: mushroom spines in hippocampal CA1 neurons; experiment: Dendritic spine analysis in hippocampal slice; type: cell-based, mouse; details: 6 month-old mice, 300 nM for 3.5 hours
Experimental: FIGS. 6A-E. NSN21778 rescues mushroom spine and synaptic plasticity defects in AD hippocampal slices. (FIG. 6A) Confocal images of CA1 hippocampal slices from 6 month-old WTGFP, PS1KIGFP, and APPKIGFP mice. The images are shown for untreated slices (CON) and for slices treated with 300 nM NSN21778 (+NSN) for 3.5 hrs prior to fixation. Scale bar is 10 μm. (FIG. 6B) The fraction of mushroom spines in hippocampal CA1 neurons from 6 month-old WTGFP, PS1KIGFP, and APPKIGFP mice. The results are shown for untreated slices (CON) and for slices treated with 300 nM NSN21778 (+NSN). The average fraction of mushroom spines for each group of cells is shown as mean±SE (n≥31 neurons). ***, p <0.001. (FIG. 6C) Sample fEPSP traces are shown for 6 month-old WT and APPKI hippocampal slices prior to stimulation (basal), immediately after tetanus stimulation (induction) and 1 h after tetanus stimulation (after 1 hr). The results are shown for untreated slices and for slices pre-treated with 300 nM NSN21778 (+NSN) for 2-3 hours prior to tetanus stimulation. (FIG. 6D) The normalized and averaged fEPSP slope is shown as a function of time in the experiments with 6 month-old wild-type and APPKI slices with (+NSN) or without 300 nM NSN21778 pre-treatment. […]
Dendritic Spine Analysis in Hippocampal slice. […] Approximately 25 neurons from 5 mice were analyzed for each genotype. […]

[2] = In vivo pharmacokinetics (plasma and brain); set-up: species or system mouse; details: i.p. 10 mg/kg, female CD-1 mice
Experimental: FIGS. 12A-D. NSN21778 in vitro metabolism stability, in vivo plasma pharmacokinetics, and side effect on body weight (Related to FIGS. 7A-G). (FIG. 12A) The metabolic stability of NSN21778 was evaluated in vitro after incubation with commercial liver S9 fractions in the presence of phase I (NADPH regenerating system) cofactors. Compound levels were determined by LC-MS/MS. Additionally, the stability of NSN21778 in the presence of commercial CD-1 mouse plasma was measured. (FIG. 12B) NSN21778 was dosed i.p. at 10 mg/kg to female CD-1 mice. Levels of NSN21778 in plasma and brain were evaluated by LC-MS/MS. (FIG. 12C) WTGFP, PS1KIGFP and APPKIGFP mice body weight after i.p. administrated with control solution or 10 mg/kg NSN21778 for 10 weeks. Data presented as mean±SE (n=5 mice). […]
In vivo pharmacokinetics. […] The supernatant was then analyzed by LC-MS/MS. […] The limit of quantitation (LOQ) was defined as the lowest concentration at which back calculation yielded a concentration within 20% of the theoretical value and above the LOD signal. […] Because the animals were not perfused prior to tissue isolation, to determine the final brain concentration of NSN21778, the amount of compound in brain due to brain vasculature was first subtracted using the calculated plasma concentrations of NSN21778 and a value of 30 μl of blood/g of brain tissue (Kwon, 2001).

[3] = test system: mushroom spines in hippocampal CA1 neurons; experiment: Dendritic spine analysis in mice hippocampus after i.p. treatment; type: in vivo, mouse; details: i.p. 10 mg/kg for 10 weeks
amyloid plaques = experiment: Aβ immunohistochemistry, amyloid plaque load in APPKI mice; type: in vivo, mouse; details: 13 month-old APPKI mice; i.p. 10 mg/kg three times per week for 8 weeks

With `CC(=O)Nc1ccc(CCNc2ncnc3ccc(N)cc23)cc1` [NSN21778, N-{4-[2-(6-Amino-quinazolin-4-ylamino)-ethyl]-phenyl}-acetamide] the mushroom spines ([1]; PS1KIGFP and APPKIGFP hippocampal slices) was “complete rescue”, the mushroom spines ([1]; WTGFP slices) was “no effect” and the brain penetration [2] was “poor”. The levels in plasma [2] was “modest levels”, the “mushroom spine deficiency in vivo” value ([3]; PS1KIGFP and APPKIGFP mice) was “rescue of mushroom spine deficiency” and the “mushroom spines in vivo” value ([3]; WTGFP mice) was “no effect”. For the same molecule, the plaque intensity (amyloid plaques) was “significant reduction” and the total plaque area (amyloid plaques) was “significant reduction”.
